The results in this text go back to patent US20240343733A1, “COMPOUNDS FOR TARGETING DEGRADATION OF IRAK4 PROTEINS” (BIOGEN MA INC., priority 2021, published 2024).

Molecules are shown by their SMILES.

The target of this experiment is T1, IRAK4 (Canis lupus familiaris, UniProt A0A8I3S726).
T1 sequence (A0A8I3S726 1-460): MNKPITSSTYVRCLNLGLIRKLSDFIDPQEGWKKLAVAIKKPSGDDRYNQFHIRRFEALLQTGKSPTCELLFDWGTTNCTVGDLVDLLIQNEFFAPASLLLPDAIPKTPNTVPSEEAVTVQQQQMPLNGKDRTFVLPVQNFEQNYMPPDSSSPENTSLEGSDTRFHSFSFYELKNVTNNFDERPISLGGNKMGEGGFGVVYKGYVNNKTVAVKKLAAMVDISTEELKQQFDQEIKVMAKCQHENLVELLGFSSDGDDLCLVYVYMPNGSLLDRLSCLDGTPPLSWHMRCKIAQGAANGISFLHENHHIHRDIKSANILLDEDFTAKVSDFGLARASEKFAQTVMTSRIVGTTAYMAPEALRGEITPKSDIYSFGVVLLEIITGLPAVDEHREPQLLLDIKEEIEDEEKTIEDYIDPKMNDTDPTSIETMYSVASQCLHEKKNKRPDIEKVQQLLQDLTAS
As to the kind of experiment: Pharmacodynamics (PD) in Male Beagle Dogs, IRAK4 quantitation in PBMCs by nanoLC-MS/MS. In kind it is in vivo. As to conditions: male beagle dog PBMCs. As for the experimental part: Assay 4. Pharmacodynamics (PD) in Male Beagle Dogs
Pharmacodynamics (PD) biomarker analyses of male beagle dog PMBCs from the whole blood timepoint samples collected in Assay 3 were performed.
For isolation of PBMCs, the whole blood timepoint samples described in Assay 3 above were processed immediately to ensure high viability of PBMCs. All the samples were processed at 18° C. to 20° C. The freshly collected whole blood (2 mL) was mixed with an equal volume of phosphate buffered saline. This mixture was inverted several times to ensure thorough mixing. The Histopaque® (Catalog no. 10771, Sigma-Aldrich, St. Louis, MO) bottle was inverted several times to ensure uniformity of the medium. A sterile syringe was used to draw 2 mL of Histopaque® medium and added to a sterile centrifuge tube. The whole blood-PBS sample (4 ml) was carefully layered on top of the Histopaque® medium, without mixing. The tube was centrifuge at 600 g for 30 to 40 min at 18° C. to 20° C. with the brakes turned off. The upper layer containing plasma and platelets was withdrawn slowly using a sterile pipette, leaving the PBMC cell layer undisturbed at the interface. The PBMC layer was transferred to a sterile centrifuge tube using a sterile pipette. The PBMCs were washed with 3 volumes (˜6 mL) of Hank's balanced salt solution (HBSS) (Gibco, Grand Island, NY) in the centrifuge tube. The cells were suspended by gently drawing them in and out of a pipette. The tubes were centrifuged at 250 g for 10 to 15 minutes at 18° C. to 20° C. and the supernatant discarded. The PBMCs were then resuspended in 6 to 8 ml of HBSS. For cell counting, the cell suspension was diluted 1:1 with Trypan Blue dye and mixed well. The cell numbers (live and dead) were counted, and cell viability calculated. The cell numbers and cell viability of each PBMC sample were recorded. The tube was centrifuged again at 500 g for 10 min at 18° C. to 20° C. The supernatant was removed, and the cell pellet was frozen at −80° C.
The frozen dog PBMC cell pellets were homogenized in two pellet volumes of lysis buffer (100 mM triethylammonium bicarbonate (TEAB), 4% SDS, 1× Roche protease inhibitor cocktail) by sonicating at 150 watt for 10 seconds in a 4° C. water bath using an E220 focused-ultrasonicator (Covaris, Woburn, MA, USA). Lysates were then clarified by centrifugation at 18,000 g for 20 minutes at 4° C. and protein concentrations were determined by bicinchoninic acid (BCA) assay (ThermoFisher Scientific, Waltham, MA, USA).
For protein digestion, an equal amount of protein was taken from each sample. Proteins were reduced with 10 mM DTT for 10 minutes at 70° C. and alkylated with 25 mM iodoacetamide for 30 minutes in the dark. Tryptic digestion was performed with S-Trap™ method (Protifi, Farmingdale, NY, USA) overnight at 37° C. In brief, samples were mixed with 90% MeOH in 100 mM TEAB containing 10% (w/w) trypsin and loaded onto an in-house packed S-Trap microcolumns. Samples were washed with 90% MeOH in 100 mM TEAB, and digested in 100 mM TEAB for 16 hours at 37° C. The resulting peptides were spiked with five heavy-labeled IRAK4 peptides (Vivitide, LLC, Gardner, MA, USA) at 2 fmol each (column loading), desalted using C18 StageTip, SpeedVac dried, and kept at −80 C until nanoLC-MS/MS analysis.
Peptide analysis was performed on a nanoLC-MS/MS platform composed of a Q Exactive HF mass spectrometer coupled to an EASY-nLC 1200 (ThermoFisher Scientific). Peptides were separated on an EASY-Spray™ C18 column (50 cm×75 am, 2 am) (ThermoFisher Scientific) at 50° C. Mobile phases were 0.1% formic acid in water (A) and 80% acetonitrile, 0.1% formic acid (B). Peptides were eluted with a 100-min method over an effective 80 min gradient from […] to 45% B at a flow rate of 275 nL/min. Peptides were ionized with a spray voltage of 1,800 V. Mass spectrometric data were acquired at parallel reaction monitoring (PRM) mode including five pairs of light and heavy IRAK4 peptides (Table 7 below). […]

Regarding `CC(C)Oc1cc2nc([C@H]3CC[C@H](CN4CCC(c5ccc6c(c5)n(C)c(=O)n6C5CCC(=O)NC5=O)CC4)CC3)cn2cc1C(=O)Nc1cccn([C@H]2C[C@H]2F)c1=O` (stereo partly drawn) [Compound 169, 2-((1R,4S)-4-((4-(1-(2,6-dioxopiperidin-3-yl)-3-methyl-2-oxo-2,3-dihydro-1H-benzo[d]imidazol-5-yl)piperidin-1-yl)methyl)cyclohexyl)-N-(1-((1S,2R)-2-fluorocyclopropyl)-2-oxo-1,2-dihydropyridin-3-yl)-7-isopropoxyimidazo[1,2-a]pyridine-6-carboxamide], the “IRAK4 change from vehicle” value runs as follows: (time 0 h) −11%; (time 2 h) −57%; (time 24 h) −97%; (time 48 h) −96%; (time 96 h) −95%.
The corresponding values for `CC(C)Oc1cc2nc([C@H]3CC[C@H](CN4CCC(c5ccc6c(c5)n(C)c(=O)n6C5CCC(=O)NC5=O)CC4)CC3)cn2cc1C(=O)Nc1cnn2cccnc12` (stereo partly shown) [Compound 48, 2-[4-[[4-[1-(2,6-dioxo-3-piperidyl)-3-methyl-2-oxo-benzimidazol-5-yl]-1-piperidyl]methyl]cyclohexyl]-7-isopropoxy-N-pyrazolo[1,5-a]pyrimidin-3-yl-imidazo[1,2-a]pyridine-6-carboxamide] are “+12%”, −51%, −97%, −95% and −95%.
